PubChem BioAssay AID260 (DTP/NCI, 2004)
Values joined by “and” are separate entries in the source; they are usually repeats but may differ in a detail not shown here. Equal values may be shown once. Inconclusive results and toxic doses are left out. How the source made its calls: active means survival T/C of 150% or more; inactive means T/C below 125% in these data.

Test system: CD2F1 mice, intracerebral L1210 leukemia, survival T/C
Assay: NCI In Vivo Anticancer Drug Screen. Data for tumor model L1210 Leukemia (intracerebral) in CD2F1 (CDF1) mice
Details: higher = longer survival
Protocol: The antitumor activity of compounds was measured in mice bearing transplantable tumors. Survival or tumor size were measured and the results are expressed as the measurement made in the treated group (T) divided by the measurement made in the vehicle treated control group (C). The tumor model used in this assay is L1210 Leukemia (intracerebral) in CD2F1 (CDF1) mice

[1] = endpoint: median survival time, dose: 1.0 mg/kg/injection, schedule: Q01DX009 (ip), vehicle: saline with Tween-80
[2] = endpoint: median survival time, dose: 2.0 mg/kg/injection, schedule: Q01DX009 (ip), vehicle: saline with Tween-80
[3] = endpoint: median survival time, dose: 4.0 mg/kg/injection, schedule: Q01DX009 (ip), vehicle: saline with Tween-80
[4] = endpoint: median survival time, dose: 8.0 mg/kg/injection, schedule: Q01DX009 (ip), vehicle: saline with Tween-80
[5] = endpoint: median survival time, dose: 16.0 mg/kg/injection, schedule: Q01DX009 (ip), vehicle: saline with Tween-80
[6] = endpoint: median survival time, dose: 32.0 mg/kg/injection, schedule: Q01DX009 (ip), vehicle: saline with Tween-80
[7] = endpoint: median survival time, dose: 64.0 mg/kg/injection, schedule: Q01DX009 (ip), vehicle: saline with Tween-80
[8] = endpoint: median survival time, dose: 128.0 mg/kg/injection, schedule: Q01DX009 (ip), vehicle: saline with Tween-80
[9] = endpoint: median survival time, dose: 256.0 mg/kg/injection, schedule: Q01DX009 (ip), vehicle: saline with Tween-80

Measured: T/C

O=C(O)CC(NC(=O)CP(=O)(O)O)C(=O)O (stereo unspecified)
inactive: endpoint: mean survival time, dose: 200.0 mg/kg/injection, schedule: Q01DX009 (ip), vehicle: saline 100 % of control | endpoint: mean survival time, dose: 225.0 mg/kg/injection, schedule: Q01DX009 (ip), vehicle: saline 108 % of control | endpoint: mean survival time, dose: 250.0 mg/kg/injection, schedule: Q01DX009 (ip), vehicle: saline 101 % of control

COc1cccc2c1C(=O)c1c(O)c3c(c(O)c1C2=O)C[C@@](O)(/C(C)=N/NC(=O)c1ccccc1)C[C@@H]3OC1CC(N)C(O)C(C)O1 (stereo partly specified)
inactive: [1] 114 % of control | endpoint: median survival time, dose: 1.0 mg/kg/injection, schedule: Q01DX009 (ip), vehicle: saline 98 % of control and 104 % of control | [2] 123 % of control | endpoint: median survival time, dose: 2.0 mg/kg/injection, schedule: Q01DX009 (ip), vehicle: saline 103 % of control and 104 % of control | [3] 123 % of control | endpoint: median survival time, dose: 4.0 mg/kg/injection, schedule: Q01DX009 (ip), vehicle: saline 106 % of control and 110 % of control | [4] 101 % of control | endpoint: median survival time, dose: 8.0 mg/kg/injection, schedule: Q01DX009 (ip), vehicle: saline 92 % of control and 116 % of control | [5] 89 % of control

O=C1c2c(O)ccc(O)c2C(=O)c2c(NCCNCCO)ccc(NCCNCCO)c21
inactive: endpoint: median survival time, dose: 0.5 mg/kg/injection, schedule: Q01DX009 (ip), vehicle: saline with Tween-80 122 % of control and 110 % of control | [1] 120 % of control | [2] 121 % of control | [3] 105 % of control and 106 % of control

CCCCCCCCN(C)/N=N/c1nc[nH]c1C(N)=O
inactive: endpoint: median survival time, dose: 16.0 mg/kg/injection, schedule: Q01DX005 (ip), vehicle: saline with Tween-80 119 % of control | endpoint: median survival time, dose: 32.0 mg/kg/injection, schedule: Q01DX005 (ip), vehicle: saline with Tween-80 121 % of control | endpoint: median survival time, dose: 64.0 mg/kg/injection, schedule: Q01DX005 (ip), vehicle: saline with Tween-80 124 % of control | endpoint: median survival time, dose: 128.0 mg/kg/injection, schedule: Q01DX005 (ip), vehicle: saline with Tween-80 118 % of control | endpoint: median survival time, dose: 256.0 mg/kg/injection, schedule: Q01DX005 (ip), vehicle: saline with Tween-80 89 % of control

CCC(=O)O[C@H]1CC[C@H]2[C@@H]3CC[C@H]4CC(=O)[C@H](C)C[C@]4(C)[C@H]3CC[C@]12C
inactive: [4] 105 % of control and 115 % of control | [5] 105 % of control | [6] 105 % of control | [7] 122 % of control and 101 % of control | [8] 103 % of control | [9] 104 % of control | endpoint: median survival time, dose: 512.0 mg/kg/injection, schedule: Q01DX009 (ip), vehicle: saline with Tween-80 121 % of control and 103 % of control

Nc1nc(F)nc2c1ncn2C1OC(COP(=O)(O)O)C(O)C1O (stereo unspecified)
inactive: endpoint: median survival time, dose: 60.0 mg/kg/injection, schedule: Q01DX009 (ip), vehicle: saline 109 % of control | endpoint: median survival time, dose: 90.0 mg/kg/injection, schedule: Q01DX009 (ip), vehicle: saline 106 % of control | endpoint: median survival time, dose: 200.0 mg/kg/injection, schedule: Q01DX009 (ip), vehicle: saline 116 % of control

COC(=O)c1ccc(N=NN(C)C)cc1
inactive: endpoint: median survival time, dose: 8.0 mg/kg/injection, schedule: Q01DX005 (ip), vehicle: saline + alcohol 104 % of control | endpoint: median survival time, dose: 16.0 mg/kg/injection, schedule: Q01DX005 (ip), vehicle: saline + alcohol 106 % of control | endpoint: median survival time, dose: 32.0 mg/kg/injection, schedule: Q01DX005 (ip), vehicle: saline + alcohol 113 % of control | endpoint: median survival time, dose: 64.0 mg/kg/injection, schedule: Q01DX005 (ip), vehicle: saline + alcohol 120 % of control | endpoint: median survival time, dose: 128.0 mg/kg/injection, schedule: Q01DX005 (ip), vehicle: saline + alcohol 112 % of control

O=NN(CCCl)C(=O)NC1C(O)C(O)C(O)C(O)C1O (stereo unspecified)
inactive: endpoint: mean survival time, dose: 9.0 mg/kg/injection, schedule: Q01DX001 (ip), vehicle: saline 110 % of control | endpoint: mean survival time, dose: 13.0 mg/kg/injection, schedule: Q01DX001 (ip), vehicle: saline 117 % of control | endpoint: mean survival time, dose: 44.0 mg/kg/injection, schedule: Q01DX001 (ip), vehicle: saline 115 % of control | endpoint: mean survival time, dose: 67.0 mg/kg/injection, schedule: Q01DX001 (ip), vehicle: saline 95 % of control

C[C@]12C=CC(=O)C=C1CC[C@@H]1[C@@H]2CC[C@]2(C)OC(=O)CC[C@@H]12
inactive: [4] 95 % of control and 111 % of control | [5] 98 % of control and 102 % of control | [6] 101 % of control and 102 % of control | [7] 93 % of control and 102 % of control | [8] 90 % of control and 98 % of control | [9] 90 % of control and 98 % of control
